Assay [1] has as its target T1, Protein deacetylase HDAC6 (Homo sapiens, UniProt Q9UBN7).
T1 sequence (Q9UBN7 whole entry): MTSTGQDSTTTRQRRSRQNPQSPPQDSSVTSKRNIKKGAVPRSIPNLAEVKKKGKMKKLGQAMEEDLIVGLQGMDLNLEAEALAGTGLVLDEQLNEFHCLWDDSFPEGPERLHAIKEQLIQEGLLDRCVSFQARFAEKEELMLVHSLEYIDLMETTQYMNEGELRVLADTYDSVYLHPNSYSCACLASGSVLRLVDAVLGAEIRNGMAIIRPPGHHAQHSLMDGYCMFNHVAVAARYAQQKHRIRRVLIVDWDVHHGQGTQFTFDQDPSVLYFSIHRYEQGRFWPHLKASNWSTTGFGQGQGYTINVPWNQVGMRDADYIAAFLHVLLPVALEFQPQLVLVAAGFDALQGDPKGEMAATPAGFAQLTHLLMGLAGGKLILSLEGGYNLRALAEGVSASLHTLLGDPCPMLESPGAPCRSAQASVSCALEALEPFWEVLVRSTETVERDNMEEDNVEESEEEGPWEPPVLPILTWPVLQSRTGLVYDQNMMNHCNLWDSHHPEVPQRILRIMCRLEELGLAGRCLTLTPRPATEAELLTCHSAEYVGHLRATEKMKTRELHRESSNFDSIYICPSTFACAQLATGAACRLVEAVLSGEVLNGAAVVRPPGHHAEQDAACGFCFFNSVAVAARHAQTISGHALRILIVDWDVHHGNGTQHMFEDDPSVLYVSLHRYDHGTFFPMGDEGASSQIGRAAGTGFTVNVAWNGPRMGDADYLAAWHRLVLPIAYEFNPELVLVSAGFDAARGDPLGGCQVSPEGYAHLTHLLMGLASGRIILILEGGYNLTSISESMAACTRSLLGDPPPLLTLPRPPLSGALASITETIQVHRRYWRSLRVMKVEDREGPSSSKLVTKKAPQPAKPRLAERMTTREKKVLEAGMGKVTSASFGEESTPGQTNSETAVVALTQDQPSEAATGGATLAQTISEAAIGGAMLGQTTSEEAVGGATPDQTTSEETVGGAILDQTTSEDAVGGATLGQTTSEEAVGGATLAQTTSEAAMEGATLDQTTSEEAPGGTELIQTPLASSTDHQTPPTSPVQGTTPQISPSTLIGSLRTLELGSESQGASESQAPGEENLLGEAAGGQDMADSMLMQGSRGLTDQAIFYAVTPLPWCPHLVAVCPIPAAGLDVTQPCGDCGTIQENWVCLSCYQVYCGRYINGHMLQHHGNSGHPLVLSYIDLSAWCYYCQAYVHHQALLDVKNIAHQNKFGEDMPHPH
Nature of the assay: Inhibition of recombinant human His-tagged HDAC6 expressed in baculovirus infected insect cells using Ac-Leu-Gly-Lys(Ac)-AMC as substrate measured after 30 mins by fluorescence assay.

The subject of the next assay is MDA-MB-231. Nature of the assay: Antiproliferative activity against human MDA-MB-231 cells measured after 24 hrs by MTT assay. Type of assay: functional, cell-based. The settings on record: MDA-MB-231, 24 h.

These results are taken from ChEMBL document CHEMBL4765420, “Design, synthesis and biological evaluation of novel HDAC inhibitors with improved pharmacokinetic profile in breast cancer” (Eur J Med Chem, 2020).

pIC50: −log10 of the molar value.

As for `COc1cc(OC)c2c(N3CCSCC3)nc(-c3cc(C)c(OCCCCCC(=O)NO)c(C)c3)nc2c1`, the negative-log IC50 (pIC50) in assay [1] is 6.89; with MDA-MB-231, 5.05.
The matching figures for `COc1cc(OC)c2c(N3CCOCC3)nc(-c3cc(C)c(OCCCCCC(=O)NO)c(C)c3)nc2c1`: 6.92 and 5.26.
As for `COc1cc(OC)c2c(N3CCOC[C@H]3C)nc(-c3cc(C)c(OCCCCC(=O)NO)c(C)c3)nc2c1`, the results for the negative-log IC50 (pIC50) (in assay [1]; with MDA-MB-231) were 6.66 and 5.08, respectively.
Regarding `COc1cc(OC)c2c(N3CCS(=O)(=O)CC3)nc(-c3cc(C)c(OCCCC(=O)NO)c(C)c3)nc2c1`, the pIC50 was 6.07 in assay [1] and 4.73 in the assay on MDA-MB-231.
`COc1cc(OC)c2c(N3CCOC[C@H]3C)nc(-c3cc(C)c(OCCCCCC(=O)NO)c(C)c3)nc2c1`: the negative logarithm of the IC50 (pIC50) in assay [1] was 6.99; in the assay on MDA-MB-231, 5.22.
The matching figures for `COc1cc(OC)c2c(N3CCSCC3)nc(-c3cc(C)c(OCC(=O)NO)c(C)c3)nc2c1`: less than 4.70 and 4.43.
The matching figures for `COc1cc(OC)c2c(N3CCOC[C@H]3C)nc(-c3cc(C)c(OCC(=O)NO)c(C)c3)nc2c1`: less than 4.70 and 4.50.
For `COc1cc(OC)c2c(N3CCS(=O)(=O)CC3)nc(-c3cc(C)c(OCC(=O)NO)c(C)c3)nc2c1` the same measures were less than 4.70 and less than 4.30.
`COc1cc(OC)c2c(N3CCOCC3)nc(-c3cc(C)c(OCCCC(=O)NO)c(C)c3)nc2c1`: the figures for the pIC50 (in assay [1]; with MDA-MB-231) were 6.46 and 4.94, respectively.
The matching figures for `COc1cc(OC)c2c(N3CCOC[C@@H]3C)nc(-c3cc(C)c(OCC(=O)NO)c(C)c3)nc2c1`: less than 4.70 and 4.53.
For `COc1cc(OC)c2c(N3CCOC[C@@H]3C)nc(-c3cc(C)c(OCCCCCC(=O)NO)c(C)c3)nc2c1` the same measures were 7.01 and 5.42.
The matching figures for `COc1cc(OC)c2c(N3CCOCC3)nc(-c3cc(C)c(OCCCCC(=O)NO)c(C)c3)nc2c1`: 6.68 and 5.14.
For the molecule `COc1cc(OC)c2c(N3CCOCC3)nc(-c3cc(C)c(OCC(=O)NO)c(C)c3)nc2c1`, the figures for the negative logarithm of the IC50 (pIC50) (in assay [1]; in the assay with MDA-MB-231) were less than 4.70 and 4.45, respectively.
On to `COc1cc(OC)c2c(N3CCOC[C@@H]3C)nc(-c3cc(C)c(OCCCC(=O)NO)c(C)c3)nc2c1`, for which the figures for the negative-log IC50 (pIC50) (in assay [1]; in the assay on MDA-MB-231) were 6.44 and 4.97, respectively.
For `COc1cc(OC)c2c(N3CCSCC3)nc(-c3cc(C)c(OCCCCC(=O)NO)c(C)c3)nc2c1` the same measures were 6.54 and 5.01.
Take `COc1cc(OC)c2c(N3CCOC[C@H]3C)nc(-c3cc(C)c(OCCCC(=O)NO)c(C)c3)nc2c1`: the negative logarithm of the IC50 (pIC50) is 6.48 in assay [1] and 4.95 in the assay with MDA-MB-231.
As for `COc1cc(OC)c2c(N3CCSCC3)nc(-c3cc(C)c(OCCCC(=O)NO)c(C)c3)nc2c1`, the values for the pIC50 (in assay [1]; in the assay on MDA-MB-231) were 6.38 and 4.80, respectively.
For `COc1cc(OC)c2c(N3CCOC[C@@H]3C)nc(-c3cc(C)c(OCCCCC(=O)NO)c(C)c3)nc2c1` the same measures were 6.72 and 5.18.
Regarding `COc1cc(OC)c2c(N3CCS(=O)(=O)CC3)nc(-c3cc(C)c(OCCCCC(=O)NO)c(C)c3)nc2c1`, the pIC50 was 6.89 in assay [1] and 4.92 in the assay on MDA-MB-231.
